≈ marks a conversion by molar mass, not a printed value.
What was measured:
Diplodia maydis (Dm) = assay: In vitro pathogen growth inhibition assay, Dm; format: cell-based; conditions: Stenocarpella maydis, 48 h, ≥90% growth inhibition; 48 hours; vs 2% DMSO control; read-out: Compound Concentration (ppm) sufficient for ≥90% inhibition of Dm
How it was run: (§1)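 Value reported is the compound concentration reaching ≥90% growth inhibition, from OD readings at 24 and 48 h after blank subtraction, confirmed visually. Inoculum was spores diluted in 17% V8 medium, except Rs, using 1.5 mm mycelial plugs in ¼ PDB; actual compound concentration corrected via OD600.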

[1] = tested on: Mycosphaerella graminicola (synthetic Septoria tritici); assay: Foliar protection test for wheat septoria leaf blotch control; format: in vivo; conditions: foliar spray on Triticum aestivum cv. WinterHawk, inoculated 1 hour after treatment, evaluated 16 days later
[2] = tested on: Collectotrichum graminicola (Cg); assay: In vitro pathogen growth inhibition assay, Cg; format: cell-based; conditions: 48 h, ≥90% growth inhibition; 48 hours; vs 2% DMSO control; read-out: Compound Concentration (ppm) sufficient for ≥90% inhibition of Cg
How it was run: (§2)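 Spores in 17% V8 liquid medium, or 1.5 mm Rs mycelial plugs in ¼ PDB, incubated with compound; final concentration checked by OD600 for precipitation. OD readings at 24 and 48 h, blank-subtracted, plus visual ratings; value is concentration giving ≥90% growth inhibition.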

Sphaerotheca fuliginea = assay: Foliar protection for cucumber powdery mildew control; format: in vivo; conditions: foliar spray on Cucumis sativus cv. Straight Eight, inoculated 24 hours after treatment, evaluated 7 days later
How it was run: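 Cucumber plants (cv. Straight Eight, 10 days old) sprayed to wetness on both leaf surfaces, then inoculated 24 h later by shaking sporulating stock plants over them. Held at 23–27 °C, 16 h light, 60% RH. Mildew colonization scored 7 days after inoculation, at compound concentrations of 10 ppm or lower.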

Puccinia triticina = assay: Foliar protection test for wheat leaf rust control; format: in vivo; conditions: foliar application to wheat (Triticum aestivum cv. Winterhawk), evaluated 10 days later
[3] = tested on: Fusarium moniliforme (Fm); assay: In vitro pathogen growth inhibition assay, Fm; format: cell-based; conditions: Fusarium verticillioides; ≥90% growth inhibition; 48 hours; vs 2% DMSO control; read-out: Compound Concentration (ppm) sufficient for ≥90% inhibition of Fm
How it was run: as §2

Fusarium graminearum = format: in vivo; conditions: spray on flowering Triticum aestivum cv. Samson, inoculated 24 hours after treatment, evaluated 14 days later
Septoria tritici (St) = assay: In vitro pathogen growth inhibition assay, St; format: cell-based; conditions: Zymoseptoria tritici, 48 h, ≥90% growth inhibition; 48 hours; vs 2% DMSO control; read-out: Compound Concentration (ppm) sufficient for ≥90% inhibition of St
How it was run: as §2

Botrtyis cinerea (Bc) = assay: In vitro pathogen growth inhibition assay, Bc; format: cell-based; conditions: 48 h, ≥90% growth inhibition; 48 hours; vs 2% DMSO control; read-out: Compound Concentration (ppm) sufficient for ≥90% inhibition of Bc
How it was run: as §2

[4] = tested on: Blumeria graminis f. sp. hordei; assay: Foliar protection test for barley powdery mildew control; format: in vivo; conditions: foliar spray on Hordeum vulgare cv. Perry, inoculated 24 hours after treatment, evaluated 7 days later
How it was run: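 Six-day-old barley (cv. Perry) sprayed to wetness on both leaf sides; 24 h later inoculated by shaking spores from infected stock plants. Kept at 20 to 22° C, 70% relative humidity; mildew colonization assessed 7 days later.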

[5] = tested on: Phytophthora capsici (Pc); assay: In vitro pathogen growth inhibition assay, Pc; format: cell-based; conditions: 48 h, ≥90% growth inhibition, 48 hours, vs 2% DMSO control, read-out: Compound Concentration (ppm) sufficient for ≥90% inhibition of Pc
How it was run: as §1

Phakopsora pachyrhizi = assay: Foliar protection test for Asian soybean rust control; format: in vivo; conditions: foliar application to soybean (Glycine max AG4832), percent disease area evaluated 14 days later
[6] = tested on: Fusarium virguliforme (Fv); assay: In vitro pathogen growth inhibition assay, Fv; format: cell-based; conditions: ≥90% growth inhibition, 48 hours, vs 2% DMSO control, read-out: Compound Concentration (ppm) sufficient for ≥90% inhibition of Fv
How it was run: as §1

Rhizoctonia solani (Rs) = assay: In vitro pathogen growth inhibition assay, Rs (mycelial plugs); format: cell-based; conditions: Rhizoctonia solani, 48 h, ≥90% growth inhibition; mycelial plugs; 48 hours; vs 2% DMSO control; read-out: Compound Concentration (ppm) sufficient for ≥90% inhibition of Rs
How it was run: as §1

Row | Compound | IC90 (Diplodia maydis (Dm)) | Septoria Leaf Blotch Control at a compound concentration of 25 ppm or lower [1] | IC90 [2] | Cucumber Powdery Mildew Control at a compound concentration of 10 ppm or lower (Sphaerotheca fuliginea) | Wheat Leaf Rust Control at a compound concentration of 10 ppm or lower (Puccinia triticina) | IC90 [3] | Wheat Fusarium Head Blight Control at a compound concentration of 25 ppm or lower (Fusarium graminearum) | IC90 (Septoria tritici (St)) | IC90 (Botrtyis cinerea (Bc)) | Barley Powdery Mildew Control at a compound concentration of 10 ppm or lower [4] | IC90 [5] | Asian Soybean Rust Control at a compound concentration of 25 ppm or lower (Phakopsora pachyrhizi) | IC90 [6] | IC90 (Rhizoctonia solani (Rs))
1 | COc1ccc(F)cc1[C@@H](O)Cn1c(=O)n([C@H](C)C(=O)N(C)C(C)C)c(=O)c2c(C)c(-n3nccn3)sc21 [Compound I-188, (R)-2-(1-((R)-2-(5-fluoro-2-methoxyphenyl)-2-hydroxyethyl)-5-methyl-2,4-dioxo-6-(2H-1,2,3-triazol-2-yl)-1,4-dihydrothieno[2,3-d]pyrimidin-3 (2H)-yl)-N-isopropyl-N-methylpropanamide] | 2 mg/L (≈ 3.67 µM) | C (from 25 to 49% control of wheat septoria leaf blotch) | 2 mg/L (≈ 3.67 µM) | AA (≥85% control of cucumber powdery mildew) | AA (≥85% control of wheat leaf rust) | 0.08 mg/L (≈ 0.147 µM) | D (<25% control of wheat fusarium head blight) | > 50 mg/L | 0.4 mg/L (≈ 0.734 µM) | AA (≥85% control of barley powdery mildew) | > 50 mg/L | B (from 50 to 69% control of Asian soybean rust) | 0.4 mg/L (≈ 0.734 µM) | 0.4 mg/L (≈ 0.734 µM)
2 | COc1ccc(F)cc1[C@@H](O)Cn1c(=O)n([C@@H](C)C(=O)N(C)C(C)C)c(=O)c2c(C)c(-n3nccn3)sc21 [Compound I-189, (S)-2-(1-((R)-2-(5-fluoro-2-methoxyphenyl)-2-hydroxyethyl)-5-methyl-2,4-dioxo-6-(2H-1,2,3-triazol-2-yl)-1,4-dihydrothieno[2,3-d]pyrimidin-3 (2H)-yl)-N-isopropyl-N-methylpropanamide] | 0.4 mg/L (≈ 0.734 µM) | A (from 70% to 84% control of wheat septoria leaf blotch) | 0.4 mg/L (≈ 0.734 µM) | AA (≥85% control of cucumber powdery mildew) | AA (≥85% control of wheat leaf rust) | 0.08 mg/L (≈ 0.147 µM) | C (from 25 to 49% control of wheat fusarium head blight) | 50 mg/L (≈ 91.8 µM) | 0.4 mg/L (≈ 0.734 µM) | AA (≥85% control of barley powdery mildew) | > 50 mg/L | A (from 70% to 84% control of Asian soybean rust) | 0.4 mg/L (≈ 0.734 µM) | 0.08 mg/L (≈ 0.147 µM)
3 | COCCO[C@@H](Cn1c(=O)n([C@H](C)C(=O)NC(C)C)c(=O)c2c(C)c(-n3nccn3)sc21)c1cc(F)ccc1OC [Compound I-171, (R)-2-(1-((R)-2-(5-fluoro-2-methoxyphenyl)-2-(2-methoxyethoxy)ethyl)-5-methyl-2,4-dioxo-6-(2H-1,2,3-triazol-2-yl)-1,4-dihydrothieno[2,3-d]pyrimidin-3 (2H)-yl)-N-isopropylpropanamide] | 0.08 mg/L (≈ 0.136 µM) | AA (≥85% control of wheat septoria leaf blotch) | 0.08 mg/L (≈ 0.136 µM) | AA (≥85% control of cucumber powdery mildew) | B (from 50 to 69% control of wheat leaf rust) | 0.08 mg/L (≈ 0.136 µM) | C (from 25 to 49% control of wheat fusarium head blight) | ≥ 2 mg/L | 0.08 mg/L (≈ 0.136 µM) | AA (≥85% control of barley powdery mildew) | ≥ 10 mg/L | A (from 70% to 84% control of Asian soybean rust) | ≥ 0.4 mg/L | 0.08 mg/L (≈ 0.136 µM)
4 | COc1ccc(F)cc1[C@H](Cn1c(=O)n(C(C)(C)C(=O)NC(C)C)c(=O)c2c(C)c(-n3nccn3)sc21)OCC(C)(C)C#N [Compound I-213, (R)-2-(1-(2-(2-cyano-2-methylpropoxy)-2-(5-fluoro-2-methoxyphenyl)ethyl)-5-methyl-2,4-dioxo-6-(2H-1,2,3-triazol-2-yl)-1,4-dihydrothieno[2,3-d]pyrimidin-3 (2H)-yl)-N-isopropyl-2-methylpropanamide] | ≥ 0.08 mg/L | AA (≥85% control of wheat septoria leaf blotch) | 0.4 mg/L (≈ 0.639 µM) | AA (≥85% control of cucumber powdery mildew) | B (from 50 to 69% control of wheat leaf rust) | 0.08 mg/L (≈ 0.128 µM) | B (from 50 to 69% control of wheat fusarium head blight) | > 50 mg/L | 0.4 mg/L (≈ 0.639 µM) | A (from 70% to 84% control of barley powdery mildew) | > 50 mg/L | B (from 50 to 69% control of Asian soybean rust) | 0.4 mg/L (≈ 0.639 µM) | 0.08 mg/L (≈ 0.128 µM)
5 | CCc1ccc(F)cc1[C@H](Cn1c(=O)n(C(C)(C)C(=O)NC(C)C)c(=O)c2c(C)c(-n3nccn3)sc21)OC[C@H](C)C#N [Compound I-284, 2-(1-((R)-2-((R)-2-cyanopropoxy)-2-(2-ethyl-5-fluorophenyl)ethyl)-5-methyl-2,4-dioxo-6-(2H-1,2,3-triazol-2-yl)-1,4-dihydrothieno[2,3-d]pyrimidin-3 (2H)-yl)-N-isopropyl-2-methylpropanamide] | 2 mg/L (≈ 3.28 µM) | AA (≥85% control of wheat septoria leaf blotch) | 0.08 mg/L (≈ 0.131 µM) | AA (≥85% control of cucumber powdery mildew) | AA (≥85% control of wheat leaf rust) | 0.08 mg/L (≈ 0.131 µM) | C (from 25 to 49% control of wheat fusarium head blight) | > 50 mg/L | 0.4 mg/L (≈ 0.656 µM) | AA (≥85% control of barley powdery mildew) | > 50 mg/L | B (from 50 to 69% control of Asian soybean rust) | 0.4 mg/L (≈ 0.656 µM) | 0.08 mg/L (≈ 0.131 µM)
6 | CCOC(=O)c1sc2c(c1C)c(=O)n(C(C)(C)C(=O)NC(C)C)c(=O)n2C[C@H](OCC#N)c1cc(F)ccc1OC [Compound I-251, (R)-ethyl-1-(2-(cyanomethoxy)-2-(5-fluoro-2-methoxyphenyl)ethyl)-3-(1-(isopropylamino)-2-methyl-1-oxopropan-2-yl)-5-methyl-2,4-dioxo-1,2,3,4-tetrahydrothieno[2,3-d]pyrimidine-6-carboxylate] | 2 mg/L (≈ 3.4 µM) | C (from 25 to 49% control of wheat septoria leaf blotch) | 2 mg/L (≈ 3.4 µM) | AA (≥85% control of cucumber powdery mildew) | D (<25% control of wheat leaf rust) | 0.08 mg/L (≈ 0.136 µM) | C (from 25 to 49% control of wheat fusarium head blight) | > 10 mg/L | 0.4 mg/L (≈ 0.68 µM) | AA (≥85% control of barley powdery mildew) | > 50 mg/L | C (from 25 to 49% control of Asian soybean rust) | 0.4 mg/L (≈ 0.68 µM) | 0.4 mg/L (≈ 0.68 µM)
